BindingDB's records for doi:10.1021/jm960069a (University of Camerino, 1996)

Molecular target: Alpha-1B adrenergic receptor (Mesocricetus auratus) (UniProt P18841)
Assay: Binding affinity towards Alpha-1B adrenergic receptor hamster smooth muscle using [3H]prazosin as radioligand

Alpha-1B adrenergic receptor (Mesocricetus auratus), sequence (P18841 whole entry, looked up): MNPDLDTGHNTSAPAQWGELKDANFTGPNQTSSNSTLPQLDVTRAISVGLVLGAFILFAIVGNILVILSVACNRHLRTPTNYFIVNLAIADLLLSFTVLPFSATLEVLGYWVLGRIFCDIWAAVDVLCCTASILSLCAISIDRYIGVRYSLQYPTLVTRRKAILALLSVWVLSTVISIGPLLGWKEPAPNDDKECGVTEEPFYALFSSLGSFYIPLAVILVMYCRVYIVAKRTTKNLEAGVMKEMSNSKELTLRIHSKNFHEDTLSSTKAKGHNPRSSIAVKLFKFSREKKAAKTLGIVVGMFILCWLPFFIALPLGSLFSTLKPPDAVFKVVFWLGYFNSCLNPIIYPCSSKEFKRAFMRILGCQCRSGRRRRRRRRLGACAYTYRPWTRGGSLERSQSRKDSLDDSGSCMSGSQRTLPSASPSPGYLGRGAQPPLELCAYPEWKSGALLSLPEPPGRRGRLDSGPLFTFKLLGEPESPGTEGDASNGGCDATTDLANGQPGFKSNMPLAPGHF

Compound: COc1cccc(OC)c1OCCNCC1Oc2ccccc2OC1c1ccc(C)cc1 (configuration not stated) [[2-(2,6-Dimethoxy-phenoxy)-ethyl]-(3-p-tolyl-2,3-dihydro-benzo[1,4]dioxin-2-ylmethyl)-amine]
- Ki: 51.4 nM

Compound: COc1cccc(OC)c1OCCNC[C@@H]1Oc2ccccc2O[C@H]1c1ccc(C)cc1 [[2-(2,6-Dimethoxy-phenoxy)-ethyl]-((2S,3S)-3-p-tolyl-2,3-dihydro-benzo[1,4]dioxin-2-ylmethyl)-amine]
- Ki: 21.1 nM
